In patent publication US20060089395A1, “Nf-kb activation inhibitors” (priority 2002, published 2006):
Read-outs that look alike come from different tables or passages of the source.

System: NF-κ B
Experiment: Inhibitory activity of NF-κ B activation, luciferase reporter assay in HepG2 under TNF-α stimulation
Type: cell-based, human
Method: Using a transfection reagent(Effectene; QIAGEN), the human hepatoma cell strain HepG2 was transfected with a plasmid(pNF κ B-Luc Reporter Plasmid; […]) which is integrated with an oligonucleotide having five tandem copies of NF-κ B binding sequences([…]) on a upstream region of firefly luciferase gene(Luc) according to the QIAGEN's protocol, and the cells were incubated for 6 to 24 hours. After the addition of TNF-α (40 ng/ml) in the presence or absence of a test compound, the cells were incubated for 4 hours, and intracellular luciferase activity was measured by using PicaGene LT (TOYO INK MFG Co., Ltd.) and a chemical luminescence measurement apparatus ([…]luor Plus; TECAN). The inhibitory ratio was measured as a ratio relative to the value of a luciferase activity in the absence of the test compound.

[1] = Homo sapiens, 1 μg/mL, HepG2, TNF-α (40 ng/ml), 4 hours, read-out: Inhibitory Ratio of NF-κ B Activation(%) Drug Concentration 1 μg/mL
[2] = Homo sapiens, 10 μg/mL, HepG2, TNF-α (40 ng/ml), 4 hours, read-out: Inhibitory Ratio of NF-κ B Activation(%) Drug Concentration 10 μg/mL
[3] = 1 μg/mL, HepG2, TNF-α (40 ng/ml), 4 hours
[4] = 10 μg/mL, HepG2, TNF-α (40 ng/ml), 4 hours

Row | SMILES | inhibition at 1 µg/mL [1] [%] | inhibition at 10 µg/mL [2] [%] | Inhibitory Ratio of NF-κ B Activation(%) Drug Concentration 1 μg/mL [3] [%] | Inhibitory Ratio of NF-κ B Activation(%) Drug Concentration 10 μg/mL [4] [%] | further results
1 | O=C(Nc1cc(C(F)(F)F)ccc1C(F)(F)F)c1cc(Cl)ccc1O [Compound No.81, N-[2,5-bis(trifluoromethyl)phenyl]-5-chloro-2-hydroxybenzamide] | 95 | 96.3 | – | – | inhibition at 0.1 µg/mL (Homo sapiens, HepG2, 4 h, 0.1 μg/ml, comparison table, reporter assay, read-out: Inhibitory Ratio of NF-κB Activation (%) 0.1 μg/ml): 27%; inhibition at 1 µg/mL (Homo sapiens, HepG2, 4 h, 1 μg/ml, comparison table, reporter assay, read-out: Inhibitory Ratio of NF-κB Activation (%) 1 μg/ml): 95%; inhibition at 10 µg/mL (Homo sapiens, HepG2, 4 h, 10 μg/ml, comparison table, reporter assay, read-out: Inhibitory Ratio of NF-κB Activation (%) 10 μg/ml): 96.3%
2 | O=C(Nc1cc(C(F)(F)F)cc(C(F)(F)F)c1)c1cc(I)ccc1O [Compound No. 7, N-[3,5-bis(trifluoromethyl)phenyl]-2-hydroxy-5-iodobenzamide] | 86.6 | 85.4 | – | – | –
3 | O=C(Nc1cc(C(F)(F)F)cc(C(F)(F)F)c1)c1cc([N+](=O)[O-])ccc1O [Compound No. 8, N-[3,5-bis(trifluoromethyl)phenyl]-2-hydroxy-5-nitrobenzamide] | 92 | 99.2 | – | – | –
4 | CC(=O)c1ccc(O)c(C(=O)Nc2cc(C(F)(F)F)cc(C(F)(F)F)c2)c1 [Compound No. 12, 5-acetyl-N-[3,5-bis(trifluoromethyl)phenyl]-2-hydroxybenzamide] | 86.3 | 99.2 | – | – | –
5 | CC(O)c1ccc(O)c(C(=O)Nc2cc(C(F)(F)F)cc(C(F)(F)F)c2)c1 (centres unmarked) [Compound No. 13] | – | – | 76.8 | 96.0 | –
6 | CON=C(C)c1ccc(O)c(C(=O)Nc2cc(C(F)(F)F)cc(C(F)(F)F)c2)c1 [Compound No. 14] | – | – | 94.7 | 98.3 | –
7 | CC(=NOCc1ccccc1)c1ccc(O)c(C(=O)Nc2cc(C(F)(F)F)cc(C(F)(F)F)c2)c1 [Compound No. 15] | – | – | 94.5 | 99.2 | –
8 | N#CC(C#N)=Cc1ccc(O)c(C(=O)Nc2cc(C(F)(F)F)cc(C(F)(F)F)c2)c1 [Compound No. 16, N-[3,5-Bis(trifluoromethyl)phenyl]-5-(2,2-dicyanoethen-1-yl)-2-hydroxybenzamide] | 42.7 | 99.4 | – | – | –
9 | COC(=O)C(C#N)=Cc1ccc(O)c(C(=O)Nc2cc(C(F)(F)F)cc(C(F)(F)F)c2)c1 [Compound No. 17, 3-({N-[3,5-bis(trifluoromethyl)phenyl]carbamoyl}-4-hydroxyphenyl)-2-cyanoacrylic acid methyl ester] | – | – | 74.9 | 99.1 | –
10 | N#CC(=Cc1ccc(O)c(C(=O)Nc2cc(C(F)(F)F)cc(C(F)(F)F)c2)c1)C(=O)O [Compound No. 18] | – | – | 59.7 | 98.5 | –
11 | C[Si](C)(C)C#Cc1ccc(O)c(C(=O)Nc2cc(C(F)(F)F)cc(C(F)(F)F)c2)c1 [Compound No. 20, N-[3,5-bis(trifluoromethyl)phenyl]-2-hydroxy-5-[(trimethylsilyl)ethynyl]benzamide] | 91.1 | 94.9 | – | – | –
12 | C#Cc1ccc(O)c(C(=O)Nc2cc(C(F)(F)F)cc(C(F)(F)F)c2)c1 [Compound No. 21] | – | – | 53.3 | 90.1 | –
13 | O=C(Nc1cc(C(F)(F)F)cc(C(F)(F)F)c1)c1cc(C(F)(F)C(F)(F)F)ccc1O [Compound No. 26] | – | – | 93.3 | 95.4 | –
14 | O=C(Nc1cc(C(F)(F)F)cc(C(F)(F)F)c1)c1cc(-c2cccs2)ccc1O [Compound No. 28] | – | – | 79.5 | 97.8 | –
15 | Cc1nc(-c2ccc(O)c(C(=O)Nc3cc(C(F)(F)F)cc(C(F)(F)F)c3)c2)cs1 [Compound No. 30, N-[3,5-Bis(trifluoromethyl)phenyl]-2-hydroxy-5-(2-methylthiazol-4-yl)benzamide] | 82.1 | 95.3 | – | – | –
16 | O=C(Nc1cc(C(F)(F)F)cc(C(F)(F)F)c1)c1cc(-c2ccccn2)ccc1O [Compound No. 32, N-[3,5-Bis(trifluoromethyl)phenyl]-2-hydroxy-5-(pyridin-2-yl)benzamide] | 90.4 | 99 | – | – | –

Row | SMILES | inhibition at 1 µg/mL [1] [%] | inhibition at 10 µg/mL [2] [%] | Inhibitory Ratio of NF-κ B Activation(%) Drug Concentration 1 μg/mL [3] [%] | Inhibitory Ratio of NF-κ B Activation(%) Drug Concentration 10 μg/mL [4] [%] | further results
17 | COc1ccc(O)c(C(=O)Nc2cc(C(F)(F)F)cc(C(F)(F)F)c2)c1 [Compound No. 33] | – | – | 30.7 | 97.0 | –
18 | CC(C)C(=O)c1ccc(O)c(C(=O)Nc2cc(C(F)(F)F)cc(C(F)(F)F)c2)c1 [Compound No. 34, N-[3,5-Bis(trifluoromethyl)phenyl]-2-hydroxy-5-isobutyrylbenzamide] | 90.7 | 98.7 | – | – | –
19 | COC(=O)c1ccc(O)c(C(=O)Nc2cc(C(F)(F)F)cc(C(F)(F)F)c2)c1 [Compound No. 35, N-[3,5-bis(trifluoromethyl)phenyl]-4-hydroxyisophthalamic acid methyl ester] | 88.2 | 96.4 | – | – | –
20 | O=C(Nc1cc(C(F)(F)F)cc(C(F)(F)F)c1)c1ccc(O)c(C(=O)Nc2cc(C(F)(F)F)cc(C(F)(F)F)c2)c1 [Compound No. 37] | – | – | – | 94.5 | –
21 | CN(C)C(=O)c1ccc(O)c(C(=O)Nc2cc(C(F)(F)F)cc(C(F)(F)F)c2)c1 [Compound No. 38, N^3-[3,5-bis(trifluoromethyl)phenyl]-4-hydroxy-N^1,N^1-dimethylisophthalamide] | 16 | 87.1 | – | – | –
22 | O=C(Nc1cc(C(F)(F)F)cc(C(F)(F)F)c1)c1cc(C(=O)N2CCCCC2)ccc1O [Compound No. 39, N-[3,5-Bis(trifluoromethyl)phenyl]-2-hydroxy-5-(piperidine-1-carbonyl)benzamide] | 23.7 | 82.2 | – | – | –
23 | CN(C)S(=O)(=O)c1ccc(O)c(C(=O)Nc2cc(C(F)(F)F)cc(C(F)(F)F)c2)c1 [Compound No. 41, N-[3,5-Bis(trifluoromethyl)phenyl]-5-dimethylsufamoyl-2-hydroxybenzamide] | – | – | 42.2 | 95.9 | –
24 | O=C(Nc1cc(C(F)(F)F)cc(C(F)(F)F)c1)c1cc(S(=O)(=O)n2cccc2)ccc1O [Compound No. 42, N-[3,5-Bis(trifluoromethyl)phenyl]-2-hydroxy-5-(pyrrole-1-sulfonyl)benzamide] | 84.4 | 98.1 | – | – | –
25 | CN(C)c1ccc(O)c(C(=O)Nc2cc(C(F)(F)F)cc(C(F)(F)F)c2)c1 [Compound No. 44] | – | – | – | 67.5 | –
26 | O=C(Nc1ccc(O)c(C(=O)Nc2cc(C(F)(F)F)cc(C(F)(F)F)c2)c1)c1ccccc1 [Compound No. 45] | – | – | – | 63.4 | –
27 | O=C(Nc1ccccc1)Nc1ccc(O)c(C(=O)Nc2cc(C(F)(F)F)cc(C(F)(F)F)c2)c1 [Compound No. 46] | – | – | 20.5 | 88.4 | –
28 | O=C(Nc1cc(C(F)(F)F)cc(C(F)(F)F)c1)c1cc(NC(=S)Nc2ccccc2)ccc1O [Compound No. 47] | – | – | 51.8 | 97.2 | –
29 | O=C(Nc1cc(C(F)(F)F)cc(C(F)(F)F)c1)c1cc(N=Nc2ccc([N+](=O)[O-])cc2)ccc1O [Compound No. 48] | – | – | 96.2 | 98.7 | –
30 | O=C(Nc1cc(C(F)(F)F)cc(C(F)(F)F)c1)c1cc(N=Nc2ccc(S(=O)(=O)Nc3ccccn3)cc2)ccc1O [Compound No. 49] | – | – | 19.4 | 89.1 | –
31 | CC(=O)Nc1cc(O)c(C(=O)Nc2cc(C(F)(F)F)cc(C(F)(F)F)c2)cc1Cl [Compound No. 50, 4-Acetylamino-N-[3,5-bis(trifluoromethyl)phenyl]-5-chloro-2-hydoxybenzamide] | – | – | 69.9 | 96.0 | –
